Reference: patent US6261814A, “Carboxylic acid reductase, and methods of using same” (University of Iowa Research Foundation, priority 1998, dated 2001)

Assays:
[1] = target: T1, carboxylic acid reductase (aryl aldehyde oxidoreductase) (Nocardia iowensis, UniProt Q6RKB1); experiment: Kinetic properties of the purified carboxylic acid reductase (standard enzyme assay); details: for Vmax: purified enzyme, mean of three determinations
Procedure: (§1) Enzyme assay. The standard aryl-aldehyde oxidoreductase assay solution contained 0.15 mM […], 1 mM ATP, and 5 mM sodium benzoate, 10 mM MgCl2 and 0.01 to 0.3 units of enzyme in 50 mM Tris-HCl buffer in a final volume of 0.7 ml. The reference cuvette contained all components except for benzoate. Enzyme reactions were initiated by adding enzyme, and they were monitored by recording the absorption decrease at 340 nm at 25° C. with a Shimadzu 160 spectrophotometer.
Kinetic constants were obtained by fitting experimental data with the EZ-FIT program developed by Perrella (Perrella, Anal. Biochem. 174:437-447 (1987)).
S(+)-α-Methyl-4-[2-methylpropyl]-benzeneacetic acid (ibuprofen) was from Aldrich Chemical Co. R(-) isomer of ibuprofen was a gift from Dr. Ching-Shih Chen, University of Rhode Island (Chen et al., Biochim. Biophys. Acta 1033:1-6 (1990)). […] Substrate enantiopurities were checked by specific rotation determination for each isomer (Chen and Rosazza, Appl. Environ. Microbiol. 60(4):1292-1296 (1994)).

Nocardia sp. NRRL 5646 = experiment: Induction of the enzyme by benzoate in stage two cultures; format: cell-based; details: NRRL5646, 24 h, read-out: induction of specific activity of aryl aldehyde oxidoreductase in crude extracts
Procedure: Shaken flask cultures were grown by a standard two stage incubation protocol (Betts et al., J. Med. Chem. 17:599-602 (1974)) in 200 ml of sterile medium held in stainless steel-capped 1-liter DeLong culture flasks. The medium, containing (wt/vol) 2% glucose, 0.5% yeast extract, 0.5% soybean flour, 0.5% NaCl, and 0.5% K2 HPO4 in distilled water, was adjusted to pH 7.2 with 6 N HCl, and then autoclaved at 121° C. for 20 min. Cultures were incubated by shaking at 250 rpm at 28° C. on New Brunswick Scientific, C25 Gyrotory shakers. A 10% inoculum derived from a 72-hour first-stage culture was used to initiate the second-stage culture, which was incubated as before. […] The culture was harvested 24 hours after the addition of benzoate, the cells were collected from the medium by centrifugation at 8,000×g for 20 min., and washed twice with 0.9% NaCl. Cell pellets were stored at -38° C. until needed. Typical wet cell yields by this cultivation process were approximately 25 g/liter.
As a result, it was determined that the specific activity of aryl aldehyde oxidoreductase in crude extracts of Nocardia sp. NRRL 5646 could be induced up to 10 fold by the addition of up to 5 mg/ml benzoate to the 24 hour, stage two cultures.

[2] = target: T2, oxidoreductase from Neurospora crassa (Neurospora crassa, UniProt Q7RW48); details: Eur. J. Biochem. 8:413 (1969); cited from earlier work
T2 construct: host or cells: crude Neurospora crassa preparation (Eur. J. Biochem. 8:413 (1969))
T2 sequence (Q7RW48 1-1052): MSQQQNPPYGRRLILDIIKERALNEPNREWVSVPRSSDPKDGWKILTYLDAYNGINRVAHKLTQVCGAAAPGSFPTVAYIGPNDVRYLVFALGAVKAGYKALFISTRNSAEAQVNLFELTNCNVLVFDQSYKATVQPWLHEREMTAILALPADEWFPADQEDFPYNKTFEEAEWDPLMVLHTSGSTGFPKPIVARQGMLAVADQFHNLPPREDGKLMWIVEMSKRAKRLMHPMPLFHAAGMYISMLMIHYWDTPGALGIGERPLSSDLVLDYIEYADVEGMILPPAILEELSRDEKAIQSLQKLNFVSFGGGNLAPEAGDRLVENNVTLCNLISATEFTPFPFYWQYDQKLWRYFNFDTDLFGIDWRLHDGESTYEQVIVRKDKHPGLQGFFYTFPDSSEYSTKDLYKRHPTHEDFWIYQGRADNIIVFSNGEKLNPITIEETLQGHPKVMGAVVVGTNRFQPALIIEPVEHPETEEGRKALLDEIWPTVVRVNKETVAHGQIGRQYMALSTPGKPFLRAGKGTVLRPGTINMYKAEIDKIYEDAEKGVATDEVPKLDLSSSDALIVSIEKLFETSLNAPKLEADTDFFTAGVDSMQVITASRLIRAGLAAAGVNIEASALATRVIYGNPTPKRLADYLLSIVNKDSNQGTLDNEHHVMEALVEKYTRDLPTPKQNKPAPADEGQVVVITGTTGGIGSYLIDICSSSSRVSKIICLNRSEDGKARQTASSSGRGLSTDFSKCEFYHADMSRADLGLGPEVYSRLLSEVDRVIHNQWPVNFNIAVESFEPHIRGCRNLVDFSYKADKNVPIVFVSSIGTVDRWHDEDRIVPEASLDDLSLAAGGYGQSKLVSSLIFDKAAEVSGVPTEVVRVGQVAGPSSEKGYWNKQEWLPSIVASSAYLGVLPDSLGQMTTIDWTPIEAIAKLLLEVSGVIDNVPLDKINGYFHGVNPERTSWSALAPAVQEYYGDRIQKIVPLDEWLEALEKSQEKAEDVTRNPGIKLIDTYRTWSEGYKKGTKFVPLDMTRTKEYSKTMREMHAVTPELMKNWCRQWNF

[3] = target: T1, carboxylic acid reductase (aryl aldehyde oxidoreductase); experiment: Substrate specificity of crude carboxylic acid reductase (100,000×g supernatant); format: biochemical, Nocardia sp. NRRL 5646; set-up: Crude enzyme preparations consisting of 100,000×g supernatants were used in this study; endogenous in cells; host or cells: Nocardia sp; NRRL 5646, crude 100,000×g supernatant
Procedure: as §1
Crude enzyme preparations consisting of 100,000×g supernatants were used in this study. […] The relative rate of reduction for each carboxylic acid derivative is expressed as the percentage of the initial rate of benzoate reduction.
The range of oxidoreductase activities of crude, 100,000×g Nocardia extract with a variety of substrates was investigated. Various substituted 2-, 3- and 4-substituted benzoates were examined, including a range of ring-activating and ring-deactivating functional groups. Benzoates substituted with halogens, methyl, methoxy, hydroxy, acetyl, nitro, benzoyl, phenyl, and phenoxyl groups as well as aryl-ring systems containing two (naphthalene) and three (fluorene) rings, and heterocyclic aromatic acids including furoic, nicotinic and indole carboxylic acids were considered. In addition, one cinnamic acid derivative, phenyl-acetate, phenyl-malonate, phenyl-succinate and 2-phenylpropionic acid were studied.

T1 sequence (Q6RKB1 whole entry): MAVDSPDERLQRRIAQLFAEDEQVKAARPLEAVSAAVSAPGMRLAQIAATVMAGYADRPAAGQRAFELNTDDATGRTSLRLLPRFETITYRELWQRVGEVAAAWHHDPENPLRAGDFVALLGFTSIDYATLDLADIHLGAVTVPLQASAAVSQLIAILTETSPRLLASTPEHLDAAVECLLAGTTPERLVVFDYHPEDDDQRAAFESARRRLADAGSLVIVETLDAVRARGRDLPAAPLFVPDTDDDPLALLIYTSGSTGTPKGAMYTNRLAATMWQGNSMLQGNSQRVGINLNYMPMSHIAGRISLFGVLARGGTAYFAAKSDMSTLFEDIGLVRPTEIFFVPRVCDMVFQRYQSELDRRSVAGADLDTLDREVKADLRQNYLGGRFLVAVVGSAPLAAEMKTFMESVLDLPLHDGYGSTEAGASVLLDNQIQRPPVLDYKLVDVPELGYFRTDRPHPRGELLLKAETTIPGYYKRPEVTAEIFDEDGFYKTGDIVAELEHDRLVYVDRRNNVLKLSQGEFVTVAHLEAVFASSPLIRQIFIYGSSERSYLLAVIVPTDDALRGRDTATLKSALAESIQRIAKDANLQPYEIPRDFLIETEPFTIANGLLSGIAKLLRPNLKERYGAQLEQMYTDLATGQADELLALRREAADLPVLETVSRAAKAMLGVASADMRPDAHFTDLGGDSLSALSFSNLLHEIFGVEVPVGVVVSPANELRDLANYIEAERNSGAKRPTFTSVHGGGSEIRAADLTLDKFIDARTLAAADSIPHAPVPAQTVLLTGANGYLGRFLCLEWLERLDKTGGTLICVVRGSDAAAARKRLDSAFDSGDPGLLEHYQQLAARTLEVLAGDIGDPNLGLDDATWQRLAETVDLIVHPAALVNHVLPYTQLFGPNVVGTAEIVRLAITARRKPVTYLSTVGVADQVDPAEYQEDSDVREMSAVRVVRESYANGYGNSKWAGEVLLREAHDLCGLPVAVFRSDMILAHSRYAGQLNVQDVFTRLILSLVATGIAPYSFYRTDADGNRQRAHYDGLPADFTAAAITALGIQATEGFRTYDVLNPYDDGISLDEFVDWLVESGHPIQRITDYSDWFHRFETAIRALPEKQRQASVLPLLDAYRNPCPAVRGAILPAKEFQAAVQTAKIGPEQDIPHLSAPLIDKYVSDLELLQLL

O=C(O)c1ccccc1 [benzoic acid]
inhibition of the enzyme by benzoate ([1]; benzoate concentration up to 2 mM): no inhibition was observed
apparent Km relative to Km reported for the enzyme from Nocardia asteroides ([1]; higher than values reported by Kato et al.): more than 1000 fold
turnover number ([1]; pseudo-first order reaction conditions): 126 min⁻¹
Vmax [1]: 0.902 ± 0.04 μmol/min/mg of protein
Vmax ([1]; listed as benzoate): 0.902±0.04 μmol/min/mg of protein
fold induction at 5000 µg/mL (Nocardia sp. NRRL 5646): ≤ 10
Km [2]: 63 µM
benzoate concentration at which activity is inhibited [2]: 300 µM
Relative Activity ([3]; 5 mM substrate, 0.15 mM NADPH, 1 mM ATP, 50 mM Tris-HCl pH 7.5, percentage of the initial rate of benzoate reduction): 100 percentage
quality as substrate of the enzyme (in words) ([3]; substrates of Table 2): best substrates
rate of benzoate reduction ([3]; typical, crude enzyme, 5 mM): 0.066 ΔA340 /min
rate of benzoate reduction (equivalent) ([3]; typical, crude enzyme, 5 mM): 10.6 µM/min
